Experimental data taken from publication PMC5095144, “Purification and characterization of an extracellular β‐glucosidase from Sporothrix schenckii” (FEBS Open Bio, 2016).

What was measured:
[1] = tested on: T1, extracellular β-glucosidase; test: fluorometric 4-MU release, Michaelis-Menten nonlinear regression; type: biochemical, Sporothrix schenckii; settings: 100 mM sodium citrate pH 5, 45 °C; substrate 0–15 μM
T1 construct: gene beta-D-glucoside glucohydrolase; native, secreted, purified from culture filtrate of cellulose-grown mycelial form

[2] = tested on: T1, extracellular β-glucosidase; test: p-nitrophenol release at […] nm, Michaelis-Menten nonlinear regression; type: biochemical, Sporothrix schenckii; settings: 100 mM sodium citrate pH 5, 45 °C; substrate 0–17.5 mM (below the fitted Km)
[3] = target: extracellular β-glucosidase from Sporothrix schenckii (Sporothrix schenckii); test: SEC; Sephacryl S200-HR column (1 x 119 cm), 50 mM phosphate buffer pH 7, 4 °C, calibrated with standard proteins; native mass compared with the subunit mass from 7% SDS/PAGE
[4] = target: extracellular β-glucosidase from Sporothrix schenckii (Sporothrix schenckii); test: zymogram after SDS/PAGE (semidenaturing) and native PAGE; 7% gels run at 4 °C, sample incubated 30 min at 37 °C in sample buffer; activity shown with 4-MUG; CFCF after 3 days on cellulose

Molecule: Cc1cc(=O)oc2cc(O[C@@H]3O[C@H](CO)[C@@H](O)[C@H](O)[C@H]3O)ccc12 [4-methylumbelliferyl β-D-glucopyranoside]
- Km [1]: 0.012 ± 0.001 mM

Molecule: O=[N+]([O-])c1ccc(O[C@@H]2O[C@H](CO)[C@@H](O)[C@H](O)[C@H]2O)cc1 [p-nitrophenyl β-D-glucopyranoside]
- Km [2]: 44.1 ± 6.11 mM

Molecule: extracellular β-glucosidase from Sporothrix schenckii (enzyme)
- stoichiometry N [3]: 2
- stoichiometry N [4]: 2
